Data reported in patent US20230146699A1, “EDTA System for Reducing Browning in Mycohide Materials” (MycoWorks, Inc., priority 2021, published 2023).

Test system: mycohide sheets (mycelium crusts); browning by polyphenol oxidases (PPOs)
Test: Visual assessment of browning reduction in mycohide (mycelium) sheets/crusts treated with chelating agent
Settings: for reduction of surface browning (FIGS. 5-6): 1 mM and 5 mM chelator, plasticized mycohide, dried samples, 15% ALE fatliquor dip, EDTA compared with EGTA
Experimental: In some embodiments, full sized cotton sheets are treated as defined by four groups: 1) plasticization without any treatment, 2) EDTA treatment only after harvesting sheets (5 mM EDTA 14 in water added on top of mycelia layer after harvest and gently massaged; then plasticize this section in glycerin/water solution), 3) EDTA treatment only during plasticization (plasticize in glycerin/water solution 40%/60% glycerin to water with EDTA at 5 mM), and/or 4) EDTA treatment on both harvested sheets and during plasticization (see above for conditions).

Compound | reduction of browning, crusts after fatliquoring, wet state (FIG. 9) (1 mM EDTA in water, 70 C for 0.5 hour first, vs control (no EDTA)) | reduction of surface browning (FIGS. 5-6) | reduction of browning, crusts after fatliquoring, wet state (FIG. 9) (5 mM EDTA, 70 C heating step, vs 1 mM EDTA) | reduction of browning, crusts after fatliquoring, dry state (FIG. 10) (5 mM vs 1 mM EDTA, with or without 70 C (0.5 hour) heating step) | color uniformity of mycelium sheets (EDTA treated sheets vs heat treatment with or without EDTA (FIGS. 16-18)) | browning after EDTA added at different process steps (FIG. 20A, 20B) (full sized cotton sheets, 5 mM EDTA and 16 mM NaOH after harvest and/or during plasticization, varied fat liquor solution conditions) | optimum concentration to achieve browning reduction (mycelium sheets, concentrations of EDTA and EGTA optimized) [mM] | effect of adding EDTA during tanning (D&S) (sheets previously treated with EDTA during harvest or plasticization (FIG. 18A, 18B))
O=C(O)CN(CCN(CC(=O)O)CC(=O)O)CC(=O)O [EDTA, ethylenediaminetetraacetic acid] | more effective at reducing browning than a control group | achieves greater reductions in browning | even greater reductions in browning | not more effective than a lower concentration of EDTA at reducing browning | best color uniformity | observed decrease in browning | 5 | added whitening effect
O=C(O)CN(CCOCCOCCN(CC(=O)O)CC(=O)O)CC(=O)O [EGTA, egtazic acid] | – | may be effectively applied | – | – | – | – | – | –
